Format in all cases: cell-based
For assay [1], the system named is human melanoma cells Mewo (with wild-type B-Raf). As to the kind of experiment: In vitro cell proliferation assay, Mewo. Conditions: 72 hours incubation, cell number by ATP monitoring. On the procedure:
(§1) Exponentially growing human melanoma cells A375 (with a mutated B-RAF) and human melanoma cells Mewo (with wild-type B-Raf) were seeded and incubated at 37° C. in a humidified 5% CO2 atmosphere. After 24 hours, scalar doses of the compound were added to the medium and cells incubated for 72 hours. At the end of treatment, cells were washed and counted. Cell number was determined by a cellular adenosine triphosphate monitoring system. Cell proliferation was compared to control cells and the concentration inhibiting cell growth by 50% was calculated.

Assay [2] relates to human melanoma cells A375 (with a mutated B-RAF). As to the kind of experiment: In vitro cell proliferation assay, A375. Conditions: A-375. As for the experimental part: as §1
Assay [3] concerns p-MAPK (T202/Y204) in A375 human melanoma cells, having a mutated B-RAF. As to the kind of experiment: p-MAPK (T202/Y204) ArrayScan assay. Conditions: A-375, 1.5 or 2 hours treatment, cytoplasmatic p-MAPK fluorescence, read-out: Array Scan A375 IC50. On the procedure: A375 human melanoma cells, having a mutated B—RAF, were seeded in 384-well poly-lysine coated plates (Matrix) at a density of 1000 cells/well with appropriate medium supplemented with 10% FCS and incubated for 16-24 hours. Cells were treated for 1.5 or 2 hours with increasing doses of compounds (starting dose 10 μM, dilution factor 2.5). At the end of the treatment cells were fixed with p-formaldehyde 3.7% for 15-30 min, then washed twice with D-PBS (80 μl/well) and permeabilized with D-PBS containing 0.1% Triton X-100 and 1% BSA (Sigma-Aldrich) for 15 minutes at room temperature (staining solution). Anti-phospho-MAPK (T202/Y204) monoclonal antibody E10 (Cell Signaling, cat. #9106) diluted 1:100 was added in staining solution and incubated for 1 hour at 37° C. After removal of the primary antibody solution, the anti-mouse Cy™2-conjugated (Green) secondary antibody (Amersham) diluted 1:500 in staining solution containing 2 μg/ml DAPI was added. The plate was incubated for 1 hour at 37° C., washed twice and then red with Cellomics' ArrayScan VTI (4 fields/well, CytoNucTrans algorithm).
The parameter “MEAN_RingAvgIntenCh2,” which measures the mean cytoplasmatic fluorescence intensity associated to p-MAPK staining, is reported as the final result.

[4] abbreviates: A375 human melanoma cells (mutated B-RAF), 72 hours incubation, cell number by ATP monitoring, read-out: Proliferation A375 IC50.

pIC50: −log10 of the molar value. Like-named read-outs stand apart in the source and are kept apart here. Where only a bound is given, the exact number is not on record here.

Regarding `Nc1cc(-c2cn(C3CCCC3)nc2-c2cccc(NS(=O)(=O)c3cc(F)ccc3F)c2F)ccn1` [Compound 17, N-{3-[4-(2-Amino-pyridin-4-yl)-1-cyclopentyl-1H-pyrazol-3-yl]-2-fluoro-phenyl}-2,5-difluoro-benzenesulfonamide], the pIC50 in assay [1] was < 5.00; in assay [2] (setting [4]), 7.55; in assay [3], > 7.80.
In the same order, the values of `CC(C)C(=O)Nc1cc(-c2cn(C3CCOCC3)nc2-c2cccc(NS(=O)(=O)c3cc(F)ccc3F)c2F)ccn1` [Compound 30, N-{4-[3-(3-{[(2,5-difluorophenyl)sulfonyl]amino}-2-fluorophenyl)-1-(tetrahydro-2H-pyran-4-yl)-1H-pyrazol-4-yl]pyridin-2-yl}-2-methylpropanamide] are < 5.00, > 7.80 and > 7.80.
In the same order, the values of `CN1CCC(n2cc(-c3ccncc3)c(-c3cccc(NS(=O)(=O)c4cc(F)ccc4F)c3F)n2)CC1` [Compound 5, 2,5-Difluoro-N-{2-fluoro-3-[1-(1-methyl-piperidin-4-yl)-4-pyridin-4-yl-1H-pyrazol-3-yl]-phenyl}-benzenesulfonamide] are < 5.00, 8.10 and > 7.80.
In the same order, the values of `CC(C)n1cc(-c2ccnc(N)n2)c(-c2cccc(NS(=O)(=O)c3cc(F)ccc3F)c2F)n1` [Compound 10, N-{3-[4-(2-Amino-pyrimidin-4-yl)-1-isopropyl-1H-pyrazol-3-yl]-2-fluoro-phenyl}-2,5-difluoro-benzenesulfonamide] are < 5.00, 8.52 and > 7.80.
As to `CC(C)n1cc(-c2ccncc2)c(-c2cccc(NS(=O)(=O)c3cc(F)ccc3F)c2F)n1` [Compound 9, 2,5-Difluoro-N-[2-fluoro-3-(1-isopropyl-4-pyridin-4-yl-1H-pyrazol-3-yl)-phenyl]-benzenesulfonamide], the pIC50 was < 5.00 in assay [1], 8.30 in assay [2] (setting [4]) and > 7.80 in assay [3].
As to `O=S(=O)(Nc1cccc(-c2nn(C3CCC(F)(F)CC3)cc2-c2ccncc2)c1F)c1cc(F)ccc1F` [Compound 25, N-{3-[1-(4,4-difluorocyclohexyl)-4-(pyridin-4-yl)-1H-pyrazol-3-yl]-2-fluorophenyl}-2,5-difluorobenzenesulfonamide], the pIC50 in assay [1] was < 5.00; in assay [2] (setting [4]) it was > 7.80; in assay [3], > 7.80.
As to `CC(C)n1cc(-c2ccnc(N)c2)c(-c2cccc(NS(=O)(=O)c3cc(F)ccc3F)c2F)n1` [Compound 12, N-{3-[4-(2-Amino-pyridin-4-yl)-1-isopropyl-1H-pyrazol-3-yl]-2-fluoro-phenyl}-2,5-difluoro-benzenesulfonamide], the values for the pIC50 in assay [1], in assay [2] (setting [4]) and in assay [3] were < 5.00, 7.77 and > 7.80, respectively.
In the same order, the values of `CC(=O)Nc1cc(-c2cn(C3CCN(C)CC3)nc2-c2cccc(NS(=O)(=O)c3cc(F)ccc3F)c2F)ccn1` [Compound 31, N-{4-[3-(3-{[(2,5-difluorophenyl)sulfonyl]amino}-2-fluorophenyl)-1-(1-methylpiperidin-4-yl)-1H-pyrazol-4-yl]pyridin-2-yl}acetamide] are < 5.00, > 7.80 and > 7.80.
In the same order, the values of `O=S(=O)(Nc1cccc(-c2nn(CCF)cc2-c2ccncc2)c1F)c1cc(F)ccc1F` [Compound 7, 2,5-Difluoro-N-{2-fluoro-3-[1-(2-fluoro-ethyl)-4-pyridin-4-yl-1H-pyrazol-3-yl]-phenyl}-benzenesulfonamide] are < 5.00, > 7.80 and > 7.80.
For `O=S(=O)(Nc1cccc(-c2nn(C3CCN(C4CC4)CC3)cc2-c2ccncc2)c1F)c1cc(F)ccc1F` [Compound 2, N-{3-[1-(1-Cyclopropyl-piperidin-4-yl)-4-pyridin-4-yl-1H-pyrazol-3-yl]-2-fluoro-phenyl}-2,5-difluoro-benzenesulfonamide], in that order: < 5.00, 7.92 and > 7.80.
Consider `Nc1nccc(-c2cn(CCF)nc2-c2cccc(NS(=O)(=O)c3cc(F)ccc3F)c2F)n1` [Compound 11, N-{3-[4-(2-Amino-pyrimidin-4-yl)-1-(2-fluoro-ethyl)-1H-pyrazol-3-yl]-2-fluoro-phenyl}-2,5-difluoro-benzenesulfonamide], for which the results for the pIC50 in assay [1], in assay [2] (setting [4]) and in assay [3] were < 5.00, 7.77 and > 7.80, respectively.
Regarding `CCn1cc(-c2ccncc2)c(-c2cccc(NS(=O)(=O)c3cc(F)ccc3F)c2F)n1` [Ref. cpd, N-{3-[1-ethyl-4-(pyridin-4-yl)-1H-pyrazol-3-yl]-2-fluorophenyl}-2,5-difluorobenzenesulfonamide, reference compound], the pIC50 in assay [1] was < 5.00; in assay [2] (setting [4]), 7.32; in assay [2] (Homo sapiens, value quoted in text for the reference compound, no unit or cell line printed, read-out: antiproliferative activity), 7.08; in assay [3] it was > 7.80.
As for `Nc1cc(-c2cn(CCF)nc2-c2cccc(NS(=O)(=O)c3cc(F)ccc3F)c2F)ccn1` [Compound 13, N-{3-[4-(2-Amino-pyridin-4-yl)-1-(2-fluoro-ethyl)-1H-pyrazol-3-yl]-2-fluoro-phenyl}-2,5-difluoro-benzenesulfonamide], the pIC50 in assay [1] was < 5.00; in assay [2] (setting [4]) it was > 7.80; in assay [3] it was > 7.80.
As to `CC(=O)Nc1cc(-c2cn(C3CCOCC3)nc2-c2cccc(NS(=O)(=O)c3cc(F)ccc3F)c2F)ccn1` [Compound 26, N-{4-[3-(3-{[(2,5-difluorophenyl)sulfonyl]amino}-2-fluorophenyl)-1-(tetrahydro-2H-pyran-4-yl)-1H-pyrazol-4-yl]pyridin-2-yl}acetamide], the pIC50 in assay [1] is < 5.00; in assay [2] (setting [4]), 8.15; in assay [3], > 7.80.
In the case of `Nc1cc(-c2cn(C3CCOCC3)nc2-c2cccc(NS(=O)(=O)c3cc(F)ccc3F)c2F)ccn1` [Compound 14, N-{3-[4-(2-Amino-pyridin-4-yl)-1-(tetrahydro-pyran-4-yl)-1H-pyrazol-3-yl]-2-fluoro-phenyl}-2,5-difluoro-benzenesulfonamide], the pIC50 in assay [1] is < 5.00; in assay [2] (setting [4]), 7.47; in assay [3], > 7.80.
